# Measured values: publication PMC11277489, “Novel Piperazine Derivatives of Vindoline as Anticancer Agents” (International Journal of Molecular Sciences, 2024)
# Where two headings read alike, the source gives them in different places.
# How the values were obtained:
# [1] = CellTiter-Glo Luminescent Cell Viability Assay on non-tumor CHO cells; format: cell-based, Chinese hamster; details: Chinese hamster, CHO cells, 48 h, 10^−5 M, mean ± SD, n = 9
# Protocol: (§1) Three promising conjugates (20, 23, 25) were selected for testing on the non-tumor CHO cell line in the CellTiter-Glo Luminescent Cell Viability Assay (Promega Corporation, Madison, WI, USA) to reveal their selectivity for cancer cells.
# (§2) Compounds 20, 23, and 25 were dissolved in DMSO in 10 mM stock solutions and stored frozen until use. CHO cells were cultured in complete Dulbecco’s Modified Eagle’s Medium (DMEM, low glucose (1 g/L)) supplemented with 10% fetal bovine serum, 1% Gibco GlutaMAX-I (100×) solution, 1% Gibco MEM non-essential amino acid solution (100×), and 0.1% penicillin–streptomycin mixture. Cells were grown in T-25 size cell culture flasks under standard cell culture conditions (37 °C, 5% CO2) and passaged at 70–80% confluency. The assay was performed according to the manufacturer’s protocol, as described previously. Briefly, CHO cells were seeded to opaque 96-well culture plates at a density of 5000 cells/100 µL complete DMEM/well. The side rows and columns of the plate were filled with sterile phosphate-buffer saline to avoid an edge effect. Following overnight incubation (37 °C, 5% CO2), the culture medium was aspirated from the cells and replaced with increasing concentrations of drug solutions (10^−5, 10^−6, and 10^−7 M) diluted from the stock solution in sterile complete DMEM (100 µL/well). Untreated cells served as a control, and complete DMEM served as a luminescent background control. Drug-treated cells were incubated for 48 h (37 °C, 5% CO2), and then equilibrated to room temperature in 30 min. At the end of the incubation period, 100 µL of room temperature CellTiter-Glo reagent was added to each well, and the plates were placed on an orbital shaker for 2 min and incubated for additional 10 min at room temperature without shaking. The luminescent signal was measured using an EnSpire AlphaLisa microplate reader (Perkin Elmer, Inc., Waltham, MA, USA). The normalized luminescent values of the treated cells were compared to those of the untreated control. The statistical analysis and calculation of IC50 values were performed in GraphPad Prism 8.0.1 (GraphPad, La Jolla, CA, USA). Estimated IC50 values were calculated by using non-linear regression by fitting a sigmoidal dose–response curve to the data points.
# [2] = tested on: non-tumor Chinese hamster ovary (CHO) cells; experiment: as above; format: cell-based; details: for effect on CHO cell viability (in words) / IC50: 48 h; for effect on CHO cell viability (in words): 10^−7 and 10^−6 M; for IC50: read-out: IC50 (estimated)
# Protocol: as §1, §2
# HeLa cell line = tested on: HeLa cell line; set-up: method as in PMID 32102414; details: cited from earlier work
# [3] = CHO cells (non-tumor Chinese hamster ovary cell line)
# [4] = Cricetulus griseus, CHO cells, roughly estimated from three concentrations
compound,measurement,setting,value
CCC12C=CCN3CCC4(c5cc(NC(=O)CN6CCN(C(c7ccc(F)cc7)c7ccc(F)cc7)CC6)c(OC)cc5N(C)C4C(O)(C(=O)OC)C1OC(C)=O)C32 (centres unmarked) [Compound 20],viability at 48 h,[1]; [3],1.25 ± 0.77%
same,effect on CHO cell viability (in words),[2]; CHO cells,did not affect CHO cell viability
same,IC50,[2]; [4],~2.54 µM
CCC12C=CCN3CCC4(c5ccc(OC)cc5N(C)C4C(O)(C(=O)OC)C1OC(=O)CCCN1CCN(C)CC1)C32 (centres unmarked) [Compound 3],IC50,HeLa cell line,9.36 µM
CC[C@]12C=CCN3CC[C@@]4(c5ccc(OC)cc5N(C)[C@H]4[C@@](O)(C(=O)OC)[C@@H]1OC(=O)CCCN1CCN(Cc4ccc(C(F)(F)F)cc4)CC1)[C@@H]32 [Compound 23],viability at 48 h,[1]; [3],52.8 ± 7.25%
same,effect on CHO cell viability (in words),[2]; CHO cells,did not affect CHO cell viability
same,EC50,"[2]; Cricetulus griseus, CHO, non-tumor cells, read-out: half-maximal effective concentration (EC50)",10.8 µM
same,IC50,[2]; [4],~10.8 µM
CC[C@]12C=CCN3CC[C@@]4(c5ccc(OC)cc5N(C)[C@H]4[C@@](O)(C(=O)OC)[C@@H]1OC(=O)CCCN1CCN(C(c4ccc(F)cc4)c4ccc(F)cc4)CC1)[C@@H]32 [Compound 25],viability at 48 h,[1],33.5 ± 19.6%
same,effect on CHO cell viability (in words),[2]; CHO cells,did not affect CHO cell viability
same,IC50,"[2]; Cricetulus griseus, CHO",~6.64 µM
